Where a name gives a salt, the structure may show the parent alone.
Target: T1, human neuropeptide Y5 receptor (Homo sapiens, UniProt Q15761)
T1 construct: expressed in transfected cells; host or cells: HEK-293 (stably transfected, G-418 selected); membranes
T1 sequence (Q15761 1-445): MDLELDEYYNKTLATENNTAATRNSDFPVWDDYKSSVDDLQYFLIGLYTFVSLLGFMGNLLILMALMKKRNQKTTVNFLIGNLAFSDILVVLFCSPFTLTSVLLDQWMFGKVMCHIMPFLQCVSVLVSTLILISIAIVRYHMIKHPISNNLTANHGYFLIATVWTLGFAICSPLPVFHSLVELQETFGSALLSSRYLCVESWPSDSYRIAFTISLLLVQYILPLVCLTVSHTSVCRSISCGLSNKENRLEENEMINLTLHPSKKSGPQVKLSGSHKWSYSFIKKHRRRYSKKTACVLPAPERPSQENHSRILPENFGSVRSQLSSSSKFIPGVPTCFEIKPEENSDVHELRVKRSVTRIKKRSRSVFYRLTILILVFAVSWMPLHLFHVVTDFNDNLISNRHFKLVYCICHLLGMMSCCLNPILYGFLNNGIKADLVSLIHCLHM
Assay: NPY5 HTS centrifugation assay: competition with 125I-PYY for binding to membranes of NPY5-transfected HEK293 cells
Conditions: 80 pM 125I-PYY, 1 hr room temperature; for % Inh @ 300 nM (% Inhibition of 125I-PYY Binding) / inhibition at 0.3 µM: 300 nM compound; for % Inh @ 3 uM (% Inhibition of 125I-PYY Binding) / inhibition at 3 µM: 3 uM compound; for inhibition at 0.3 µM: read-out: % Inh @ 300 nM (% Inhibition of 125I-PYY Binding); for inhibition at 3 µM: read-out: % Inh @ 3 uM (% Inhibition of 125I-PYY Binding)
Description: The compounds described in this invention were evaluated for binding to the human neuropeptide Y5 receptor.
Stably transfected cells served as the source for the membranes for the NPY5 receptor binding assay.
NPY5-transfected HEK293 cells were grown to confluence in 150 cm^2 culture dishes. […] Cells were then incubated in phosphate-buffered saline without Calcium and without Magnesium, supplemented with 2 mM EDTA. Cells were incubated for 10 minutes at room temperature and the cells were collected by repetitive pipeting. Cells were formed into pellets and then frozen at −80 until needed. Frozen pellets were homogenized with a polytron at full speed for 12 seconds in a homogenization buffer (20 mM Tris HCl, 5 mM EDTA, pH 7.4). Homogenates were centrifuged for 5 minutes at 4 C at 200 g. Supernatants were transferred to corex tubes and centrifuged for 25 minutes at 28,000 g. Pellets were re-suspended in Binding (20 mM HEPES, 10 mM NaCl, 0.22 mM KH2PO4, 1.3 mM CaCl2, 0.8 mM MgSO4, pH 7.4). Membranes were kept on ice until use.
Compounds to be tested were prepared as 10× stocks in binding buffer and added first to assay tubes (RIA vials, Sarstedt). […] To each tube is added 100 μL of membranes and the mixture is agitated by pipeting 2 times. Samples are incubated for 1 hr at room temperature. Aluminum cast plates (Sarstedt) containing the vials are then centrifuged 10 minutes at 3200 rpm in a Sorvall RT6000. Supernatant is then aspirated. To each vial 400 μL PBS is added and this is then aspirated again. Vials are then put in carrier polypropylene 12×75 tube and counted in gamma counter (Packard). Non-specific binding is determined in the presence of 300 nM NPY. […] These operations are known to those skilled in the art.

SMILES | % Inh @ 300 nM (% Inhibition of 125I-PYY Binding) [%] | % Inh @ 3 uM (% Inhibition of 125I-PYY Binding) [%] | inhibition at 0.3 µM [%] | inhibition at 3 µM [%]
CN(C)C(CCCCNS(=O)(=O)c1ccccc1)C(=O)NC1CCc2ccccc2C1Cc1cccnc1 (single isomer, unassigned) [Compound 43b] | 62 | 86 |  | 
NC(CCCCNS(=O)(=O)c1ccccc1)CNC1CCc2ccccc2C1Cc1cccnc1 (single isomer, unassigned) [Compound 66] | 98 | 102 |  | 
COc1ccc2c(c1)CCC(NC(=O)[C@H](CCCCNS(=O)(=O)c1ccccc1F)NC(C)=O)C2Cc1cccnc1 (stereo partly drawn) [Compound 10, (2S)-2-(Acetylamino)-6-[(2-fluorophenylsulfonyl)amino]-N-[cis-1,2,3,4-tetrahydro-6-methoxy-1-(3-pyridinylmethyl)-2-naphthenyl]hexanamide bis-hydrochloride] |  |  | 60 | 96
O=S(=O)(NC[C@H]1CC[C@H](CNCC(Cc2cccnc2)c2ccc(F)cc2)CC1)c1ccccc1F (some centres unmarked) [Compound 27] |  |  | 105 | 110
O=C(CN1CCC(NS(=O)(=O)c2ccccc2F)CC1)NCC(Cc1cccnc1)c1ccc(F)cc1 (centres unmarked) [Compound 30, N-[2-(4-Fluorophenyl)-3-(3-pyridinyl)propyl]-4-[(2-fluorophenylsulfonyl)amino]-1-piperidineacetamide bis-trifluoroacetate] |  |  | 100 | 110
O=C(CN1CCC(n2c(=O)[nH]c3ccccc32)CC1)NC1CCc2ccccc2C1Cc1cccnc1 (centres unmarked) [Compound 31] | 91 | 100 |  | 
O=C(CN1CCC(NC(=O)c2ccccc2)CC1)NC1CCc2cc(F)ccc2C1Cc1cccnc1 (centres unmarked) [Compound 44] | 93 | 98 |  | 
O=C(CN1CCC(NC(=O)Nc2ccccc2)CC1)NC1CCc2cc(F)ccc2C1Cc1cccnc1 (centres unmarked) [Compound 45] | 68 | 95 |  | 
O=C(Cc1ccccc1)NC1CCN(CC(=O)NC2CCc3cc(F)ccc3C2Cc2cccnc2)CC1 (centres unmarked) [Compound 47] | 91 | 98 |  | 
O=C(CN1CCC(NS(=O)(=O)c2ccccc2)CC1)NC1CCc2cc(F)ccc2C1Cc1cccnc1 (centres unmarked) [Compound 48] | 97 | 103 |  | 
O=C(CN1CCC(NC(=O)Nc2ccccc2)CC1)NC1CCc2ccccc2C1Cc1cccnc1 (centres unmarked) [Compound 51] | 85 | 102 |  | 
CC(C)(C)NC(=O)NC1CCN(CC(=O)NC2CCc3cc(F)ccc3C2Cc2cccnc2)CC1 (centres unmarked) [Compound 53] | 84 | 92 |  | 
CC(C)(C)OC(=O)NC1CCN(CC(=O)NC2CCc3cc(F)ccc3C2Cc2cccnc2)CC1 (centres unmarked) [Compound 54] | 99 | 100 |  | 
CC(C)(C)OC(=O)NC1CCN(CC(=O)NC2CCc3cc(F)ccc3C2Cc2cccnc2)C1 (centres unmarked) [Compound 55] | 96 | 106 |  | 
COc1ccc2c(c1)CCC(NC(=O)CN1CCC(n3c(=O)[nH]c4ccccc43)CC1)C2Cc1ccsc1 (centres unmarked) [Compound 61] | 66 | 87 |  | 
COc1ccc2c(c1)CCC(NC(=O)CN1CCC(n3c(=O)[nH]c4ccccc43)CC1)C2Cc1cnc[nH]1 (centres unmarked) [Compound 73] | 32 | 63 |  | 
COc1ccc2c(c1)CCC(NC(=O)CN1CCC(n3c(=O)[nH]c4ccccc43)CC1)C2 (centres unmarked) [Compound 82] | 63 | 85 |  | 
O=C(CN1CCC(n2c(=O)[nH]c3ccccc32)CC1)NC1CCc2cc(O)ccc2C1 (centres unmarked) [Compound 83] | 72 | 92 |  | 
COc1ccc(C(CNC(=O)CN2CCC(n3c(=O)[nH]c4ccccc43)CC2)Cc2cccnc2)cc1 (centres unmarked) [Compound 86] | 88 | 91 |  | 
O=C(CN1CCC(n2c(=O)[nH]c3ccccc32)CC1)NCC(Cc1cccnc1)c1ccc(O)cc1 (centres unmarked) [Compound 87] | 97 | 96 |  | 
O=C(CN1CCC(NC(=O)c2ccccc2)CC1)NCC(Cc1cccnc1)c1ccc(F)cc1 (centres unmarked) [Compound 92] | 92 | 104 |  | 
COc1ccccc1N1CCN(CC(=O)NC2CCc3ccccc3C2Cc2cccnc2)CC1 (centres unmarked) [Compound 93] | 81 | 97 |  | 
